From paper PMC10899790, “A bromodomain-independent mechanism of gene regulation by the BET inhibitor JQ1: direct activation of nuclear receptor PXR” (Nucleic Acids Research, 2023)

Tests used:
HepG2 cells = test: Cytotoxicity assay (CellTiter-Glo); assay type: cell-based, human; conditions: HepG2, 24 h
Method: HepG2 cells (1 × 10^4/well in 25 μl phenol red-free DMEM supplemented with 5% charcoal/dextran-treated FBS) were plated and treated as in the transactivation assays. After 24 h compound treatment, the CellTiter-Glo Luminescent Cell Viability Assay (Promega) and an EnVision microplate reader were used to assess cytotoxicity. DMSO wells with cells served as negative controls, and wells without cells served as positive controls. The averaged luminescence signal of the wells without cells was subtracted from the luminescence signals of all other wells, and the background subtracted values were normalized to DMSO-treated wells containing cells to obtain percent cell viability.

PXR = test: RNA induction in HepaRG: PXR RNA (RT-qPCR); assay type: cell-based, human; conditions: differentiated HepaRG, 24 h; FC relative to DMSO
Method: Experiments with HepaRG cells were conducted similarly to previously described ([45]), with modifications. HepaRG cells were seeded in collagen-coated 24-well plates at 5 × 10^5 cells/well in HCM. Cells were differentiated for two weeks with HCM containing 2% DMSO. The cells were then treated with the respective chemicals for 24 h in HCM. The final DMSO concentration for the treatment was 0.5%. Total RNA was isolated from cells with Maxwell 16 LEV SimplyRNA Tissue Kits (Promega), and cDNA was generated from 250 ng of RNA with the SuperScript VILO cDNA Synthesis Kit (Thermo Fisher Scientific). Quantitative real-time polymerase chain reaction (RT-qPCR) was conducted with 2 μl of cDNA using TaqMan Fast Advanced Master Mix (Applied Biosystems) in an Applied Biosystems 7500 Fast Real-Time PCR System. TaqMan gene expression assays specific for CYP3A4 (Hs00604506_m1), PXR (Hs01114267_m1), MYC (Hs00153408_m1) and RNA18S (Hs03928990_g1) were purchased from Thermo Fisher Scientific. Fold induction values were calculated according to the 2^−ΔΔCt method, where ΔCt represents the differences in cycle threshold numbers between the target gene and reference gene and ΔΔCt represents the relative change in these differences between the control and treatment groups ([46]). RNA18S was used as the reference gene for relative quantification of all other genes.

mouse PXR (mPXR) = target: T1, mouse PXR (mPXR) (Mus musculus, UniProt O54915); conditions: mPXR-transfected HepG2, 24 h; PCN as 100% control
T1 sequence (O54915 1-431): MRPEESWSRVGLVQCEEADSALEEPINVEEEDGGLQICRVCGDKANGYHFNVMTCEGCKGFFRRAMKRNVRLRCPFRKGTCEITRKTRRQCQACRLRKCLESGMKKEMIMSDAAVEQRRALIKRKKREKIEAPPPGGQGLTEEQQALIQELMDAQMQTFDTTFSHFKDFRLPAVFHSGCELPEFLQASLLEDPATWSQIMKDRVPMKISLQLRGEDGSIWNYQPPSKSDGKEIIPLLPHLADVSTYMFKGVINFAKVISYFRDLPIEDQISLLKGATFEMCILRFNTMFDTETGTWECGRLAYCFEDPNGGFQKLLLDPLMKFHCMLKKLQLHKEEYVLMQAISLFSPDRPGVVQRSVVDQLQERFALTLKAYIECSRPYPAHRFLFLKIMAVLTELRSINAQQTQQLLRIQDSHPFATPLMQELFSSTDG
Method: Assays were performed similarly as previously described with minor modifications ([30–32]). HepG2 cells (7.5 × 10^5/well) were plated in six-well tissue culture-treated plates. The following day, cells were co-transfected with pGL3-CYP3A4-luc (2 μg/well), pRL-CMV (200 ng/well) and 100 ng/well of either empty vector (pcDNA3), pcDNA3-FLAG-PXR, pCMV6-mPXR or pGL4.53-PGK-PXR using Lipofectamine 3000 (Thermo Fisher Scientific). Twenty-four hours after transfection, cells were trypsinized and suspended in phenol red-free DMEM (Thermo Fisher Scientific) supplemented with 5% charcoal/dextran-treated FBS (HyClone), and 1 × 10^4 cells/well in 25 μl media were added to white 384-well plates. […] After 24 h, the Dual-Glo Luciferase Assay System (Promega) and EnVision microplate reader (PerkinElmer) were used to measure firefly and Renilla luciferase activities. CMV-driven Renilla luciferase was used as an indicator of general transcriptional modulation by the test compounds and is plotted as fold change (FC) relative to DMSO controls. Assays utilizing pGL4.54[luc2/TK], pGL4.53[luc2/PGK], or pGL4.13[luc2/SV40] were similarly performed and normalized. For the PXR-responsive CYP3A4-luciferase reporter, the measured relative light units (RLU) were normalized for each well using equation (1),
RLUT0901317 represents the measured RLU from wells containing 1 μM T0901317. […]

CYP3A4 = conditions: cited from earlier work

Cc1sc2c(c1C)C(c1ccc(Cl)cc1)=N[C@@H](CC(=O)OC(C)(C)C)c1nnc(C)n1-2 [JQ1, (+)-JQ1]
cytotoxicity (cell viability) (HepG2 cells): exhibited cytotoxicity at the concentrations required to activate the CYP3A4-luciferase reporter
PXR RNA expression (PXR): greatly reduced PXR RNA
activation of CYP3A4-luciferase reporter in the presence of mPXR (mouse PXR (mPXR)): did not activate the CYP3A4-luciferase reporter in the presence of mPXR
CYP3A4 substrate (CYP3A4): is a CYP3A4 substrate
